Assay results reported in US12077503B2, “Substituted cyclic amides and their use as herbicides” (FMC CORPORATION, priority 2015, dated 2024).

Columns and labels:
Type in all cases: in vivo
Kochia (Kochia scoparia) [1] = experiment: Test A preemergence; conditions: for Plant response rating, Kochia: preemergence; for Kochia plant response rating (0 to 100 scale, 0 is no effect, 100 is complete control): Preemergence, visual injury approx. 10 d
Method in brief: (§1)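 Greenhouse, ~10 d after spray; visual injury vs untreated controls, 0 = no effect, 100 = complete control. Preemergence: directed soil spray over planted seeds. Postemergence: plants 2–10 cm, 1–2 leaf stage. Loam/sand blend. Compound in non-phytotoxic solvent with surfactant.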

[2] = system: giant foxtail (Setaria faberii); experiment: Test A preemergence; conditions: for Plant response rating, Foxtail, Giant: preemergence; for Foxtail, Giant plant response rating (0 to 100 scale, 0 is no effect, 100 is complete control): Preemergence, visual injury approx. 10 d
Method in brief: as §1

[3] = system: ragweed (common ragweed, Ambrosia elatior); experiment: Test A preemergence; conditions: for Ragweed plant response rating (0 to 100 scale, 0 is no effect, 100 is complete control): visual injury approx. 10 d
Method in brief: as §1

[4] = system: ryegrass, Italian (Italian ryegrass, Lolium multiflorum); experiment: Test A preemergence; conditions: for Ryegrass, Italian plant response rating (0 to 100 scale, 0 is no effect, 100 is complete control): visual injury approx. 10 d
Method in brief: as §1

[5] = system: barnyardgrass (Echinochloa crus-galli); experiment: Test A preemergence; conditions: for Plant response rating, Barnyardgrass: preemergence; for Barnyardgrass plant response rating (0 to 100 scale, 0 is no effect, 100 is complete control): Preemergence, visual injury approx. 10 d
Method in brief: as §1

[6] = system: pigweed (Amaranthus retroflexus); experiment: Test A preemergence; conditions: for Pigweed plant response rating (0 to 100 scale, 0 is no effect, 100 is complete control): visual injury approx. 10 d
rice (Oryra sativa) = experiment: Test B flooded paddy test; conditions: Flood, 0 to 100 scale where 0 is no effect and 100 is complete control, 13 to 15 d
Method in brief: (§2)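 Plants at 2-leaf stage flooded to 3 cm above soil, with compounds applied directly to paddy water and that depth maintained. Plants kept in greenhouse 13–15 d. Visual rating versus controls on a 0 (no effect) to 100 (complete control) scale.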

[7] = system: ducksalad (Heteranthera limosa); experiment: Test B flooded paddy test; conditions: Flood, 0 to 100 scale where 0 is no effect and 100 is complete control, 13 to 15 d
Method in brief: as §2

[8] = system: barnyardgrass (Echinochloa crus-galli); experiment: Test B flooded paddy test; conditions: Flood, 0 to 100 scale where 0 is no effect and 100 is complete control, 13 to 15 d
Method in brief: as §2

[9] = system: sedge, umbrella (small-flower umbrella sedge, Cyperus difformis); experiment: Test B flooded paddy test; conditions: Flood, 0 to 100 scale where 0 is no effect and 100 is complete control, 13 to 15 d
Method in brief: as §2

Kochia (Kochia scoparia) [10] = experiment: Test A postemergence; conditions: for Kochia plant response rating: visual injury rating on 0 to 100 scale (0 no effect, 100 complete control)
Method in brief: as §1

[11] = system: blackgrass (Alopecurus myosuroides); experiment: Test A postemergence; conditions: postemergence; for Blackgrass plant response rating: visual injury rating on 0 to 100 scale (0 no effect, 100 complete control)
Method in brief: as §1

[12] = system: giant foxtail (Setaria faberii); experiment: Test A postemergence; conditions: for Foxtail, Giant plant response rating: visual injury rating on 0 to 100 scale (0 no effect, 100 complete control)
Method in brief: as §1

[13] = system: wheat (Triticum aestivum); experiment: Test A postemergence; conditions: for Wheat plant response rating: visual injury rating on 0 to 100 scale (0 no effect, 100 complete control)
Method in brief: as §1

[14] = system: ragweed (common ragweed, Ambrosia elatior); experiment: Test A postemergence; conditions: for Ragweed plant response rating: visual injury rating on 0 to 100 scale (0 no effect, 100 complete control)
Method in brief: as §1

[15] = system: ryegrass, Italian (Italian ryegrass, Lolium multiflorum); experiment: Test A postemergence; conditions: for Ryegrass, Italian plant response rating: visual injury rating on 0 to 100 scale (0 no effect, 100 complete control)
Method in brief: as §1

[16] = system: Galium (catchweed bedstraw, Galium aparine); experiment: Test A postemergence; conditions: for Galium plant response rating: visual injury rating on 0 to 100 scale (0 no effect, 100 complete control)
Method in brief: as §1

corn (Zea mays) = experiment: Test A postemergence; conditions: postemergence; for Corn plant response rating: visual injury rating on 0 to 100 scale (0 no effect, 100 complete control)
Method in brief: as §1

[17] = system: barnyardgrass (Echinochloa crus-galli); experiment: Test A postemergence; conditions: postemergence; for Barnyardgrass plant response rating: visual injury rating on 0 to 100 scale (0 no effect, 100 complete control)
Method in brief: as §1

[18] = system: pigweed (Amaranthus retroflexus); experiment: Test A postemergence; conditions: for Pigweed plant response rating: visual injury rating on 0 to 100 scale (0 no effect, 100 complete control)
Method in brief: as §1

[19] = 125 g ai/ha, visual rating after approx. 10 d, 0 to 100 scale where 0 is no effect and 100 is complete control
[20] = 500 g ai/ha, 0 to 100 scale, 0 = no effect, 100 = complete control
[21] = 125 g ai/ha, preemergence, visual rating after approx. 10 d, 0 to 100 scale where 0 is no effect and 100 is complete control
[22] = 500 g ai/ha, preemergence, 0 to 100 scale, 0 = no effect, 100 = complete control
[23] = 125 g ai/ha, postemergence, visual injury after approximately 10 d, 0 to 100 scale (0 no effect, 100 complete control)
[24] = 500 g ai/ha, postemergence, visual injury, 0 to 100 scale (0 no effect, 100 complete control), approx. 10 d
[25] = 125 g ai/ha, visual injury after approximately 10 d, 0 to 100 scale (0 no effect, 100 complete control)
[26] = 500 g ai/ha, visual injury, 0 to 100 scale (0 no effect, 100 complete control), approx. 10 d
[27] = 125 g ai/ha, 0 to 100 scale (0 no effect, 100 complete control)
[28] = 125 g ai/ha, Preemergence, visual injury after approximately 10 d, 0 to 100 scale where 0 is no effect and 100 is complete control
[29] = 125 g ai/ha, postemergence, approx. 10 d
[30] = Postemergence, 500 g ai/ha, 0 to 100 scale where 0 is no effect and 100 is complete control
[31] = 500 g ai/ha, 0 to 100 scale, 0 no effect, 100 complete control
[32] = 125 g ai/ha, preemergence, 0 to 100 scale (0 no effect, 100 complete control)
[33] = 500 g ai/ha, postemergence, 0 to 100 scale, 0 no effect, 100 complete control

O=C1NCC(c2cccc(OC(F)(F)C(F)F)c2)C1C(=O)Nc1ccc(F)cc1F (racemic) [Compound 696]
Plant response rating, Kochia (Kochia (Kochia scoparia) [1]; [19]): 40 | Plant response rating, Kochia (Kochia (Kochia scoparia) [1]; [20]): 60 | Plant response rating, Foxtail, Giant [2, 19]: 90 | Plant response rating, Foxtail, Giant [2, 20]: 90 | Plant response rating, Ragweed [3, 21]: 0 | Plant response rating, Ragweed [3, 22]: 40 | Plant response rating, Ryegrass, Italian [4, 21]: 30 | Plant response rating, Ryegrass, Italian [4, 22]: 60 | Plant response rating, Barnyardgrass [5, 19]: 80 | Plant response rating, Barnyardgrass [5, 20]: 90 | Plant response rating, Pigweed [6, 21]: 20 | Plant response rating, Pigweed [6, 22]: 30 | Plant response rating, Rice (rice (Oryra sativa); 500 g ai/ha): 35 | Plant response rating, Ducksalad ([7]; 500 g ai/ha): 90 | Plant response rating, Barnyardgrass ([8]; 500 g ai/ha): 75 | Plant response rating, Sedge, Umbrella ([9]; 500 g ai/ha): 0 | Plant response rating, Kochia (Kochia (Kochia scoparia) [10]; [23]): 30 | Plant response rating, Kochia (Kochia (Kochia scoparia) [10]; [24]): 40 | Plant response rating, Blackgrass [11, 25]: 30 | Plant response rating, Blackgrass [11, 26]: 40 | Plant response rating, Foxtail, Giant [12, 23]: 80 | Plant response rating, Foxtail, Giant [12, 24]: 80 | Plant response rating, Wheat [13, 23]: 30 | Plant response rating, Wheat [13, 24]: 50 | Plant response rating, Ragweed [14, 23]: 20 | Plant response rating, Ragweed [14, 24]: 40 | Plant response rating, Ryegrass, Italian [15, 23]: 30 | Plant response rating, Ryegrass, Italian [15, 24]: 40 | Plant response rating, Galium [16, 23]: 50 | Plant response rating, Galium [16, 24]: 70 | Plant response rating, Corn (corn (Zea mays); [25]): 40 | Plant response rating, Corn (corn (Zea mays); [26]): 70 | Plant response rating, Barnyardgrass [17, 25]: 80 | Plant response rating, Barnyardgrass [17, 26]: 80 | Plant response rating, Pigweed [18, 23]: 30 | Plant response rating, Pigweed [18, 24]: 60

O=C1NCC(c2ccc(C(F)(F)F)cc2F)C1C(=O)Nc1cccc(F)c1F (stereo not drawn) [Compound 475]
Plant response rating, Kochia (Kochia (Kochia scoparia) [1]; [27]): 70 | Kochia plant response rating (0 to 100 scale, 0 is no effect, 100 is complete control) (Kochia (Kochia scoparia) [1]; 500 g ai/ha): 70 | Plant response rating, Foxtail, Giant [2, 27]: 90 | Foxtail, Giant plant response rating (0 to 100 scale, 0 is no effect, 100 is complete control) ([2]; 500 g ai/ha): 90 | Plant response rating, Ragweed [3, 28]: 50 | Ragweed plant response rating (0 to 100 scale, 0 is no effect, 100 is complete control) ([3]; Preemergence, 500 g ai/ha): 60 | Plant response rating, Ryegrass, Italian [4, 28]: 20 | Ryegrass, Italian plant response rating (0 to 100 scale, 0 is no effect, 100 is complete control) ([4]; Preemergence, 500 g ai/ha): 40 | Plant response rating, Barnyardgrass [5, 27]: 90 | Barnyardgrass plant response rating (0 to 100 scale, 0 is no effect, 100 is complete control) ([5]; 500 g ai/ha): 90 | Plant response rating, Pigweed [6, 28]: 60 | Pigweed plant response rating (0 to 100 scale, 0 is no effect, 100 is complete control) ([6]; Preemergence, 500 g ai/ha): 90 | Plant response rating, Rice (rice (Oryra sativa); 250 g ai/ha): 15 | Plant response rating, Ducksalad ([7]; 250 g ai/ha): 100 | Plant response rating, Barnyardgrass ([8]; 250 g ai/ha): 20 | Plant response rating, Sedge, Umbrella ([9]; 250 g ai/ha): 0 | Kochia plant response rating (Kochia (Kochia scoparia) [10]; [29]): 40 | Plant response rating, Kochia (Kochia (Kochia scoparia) [10]; [30]): 60 | Blackgrass plant response rating ([11]; 125 g ai/ha, approx. 10 d): 30 | Plant response rating, Blackgrass [11, 31]: 40 | Foxtail, Giant plant response rating [12, 29]: 90 | Plant response rating, Foxtail, Giant [12, 30]: 90 | Wheat plant response rating [13, 29]: 0 | Plant response rating, Wheat [13, 30]: 30 | Ragweed plant response rating [14, 29]: 20 | Plant response rating, Ragweed [14, 30]: 30 | Ryegrass, Italian plant response rating [15, 29]: 20 | Plant response rating, Ryegrass, Italian [15, 30]: 30 | Galium plant response rating [16, 29]: 50 | Plant response rating, Galium [16, 30]: 60 | Corn plant response rating (corn (Zea mays); 125 g ai/ha, approx. 10 d): 0 | Plant response rating, Corn (corn (Zea mays); [31]): 60 | Barnyardgrass plant response rating ([17]; 125 g ai/ha, approx. 10 d): 90 | Plant response rating, Barnyardgrass [17, 31]: 90 | Pigweed plant response rating [18, 29]: 50 | Plant response rating, Pigweed [18, 30]: 70

COc1ccc(NC(=O)C2C(=O)NCC2c2cccc(OC(F)F)c2)c(F)c1 (stereo not drawn) [Compound 425]
Plant response rating, Kochia (Kochia (Kochia scoparia) [1]; [27]): 0 | Kochia plant response rating (0 to 100 scale, 0 is no effect, 100 is complete control) (Kochia (Kochia scoparia) [1]; 500 g ai/ha): 0 | Plant response rating, Foxtail, Giant [2, 27]: 40 | Foxtail, Giant plant response rating (0 to 100 scale, 0 is no effect, 100 is complete control) ([2]; 500 g ai/ha): 70 | Plant response rating, Ragweed [3, 32]: 0 | Ragweed plant response rating (0 to 100 scale, 0 is no effect, 100 is complete control) ([3]; Preemergence, 500 g ai/ha): 0 | Plant response rating, Ryegrass, Italian [4, 32]: 0 | Ryegrass, Italian plant response rating (0 to 100 scale, 0 is no effect, 100 is complete control) ([4]; Preemergence, 500 g ai/ha): 0 | Plant response rating, Barnyardgrass [5, 27]: 0 | Barnyardgrass plant response rating (0 to 100 scale, 0 is no effect, 100 is complete control) ([5]; 500 g ai/ha): 20 | Plant response rating, Pigweed [6, 32]: 0 | Pigweed plant response rating (0 to 100 scale, 0 is no effect, 100 is complete control) ([6]; Preemergence, 500 g ai/ha): 0 | Plant response rating, Rice (rice (Oryra sativa); 500 g ai/ha): 0 | Plant response rating, Ducksalad ([7]; 500 g ai/ha): 30 | Plant response rating, Barnyardgrass ([8]; 500 g ai/ha): 0 | Plant response rating, Sedge, Umbrella ([9]; 500 g ai/ha): 0 | Kochia plant response rating (Kochia (Kochia scoparia) [10]; [29]): 0 | Plant response rating, Kochia (Kochia (Kochia scoparia) [10]; [33]): 0 | Blackgrass plant response rating ([11]; 125 g ai/ha, approx. 10 d): 0 | Plant response rating, Blackgrass [11, 31]: 0 | Foxtail, Giant plant response rating [12, 29]: 20 | Plant response rating, Foxtail, Giant [12, 33]: 30 | Wheat plant response rating [13, 29]: 0 | Plant response rating, Wheat [13, 33]: 0 | Ragweed plant response rating [14, 29]: 0 | Plant response rating, Ragweed [14, 33]: 0 | Ryegrass, Italian plant response rating [15, 29]: 0 | Plant response rating, Ryegrass, Italian [15, 33]: 0 | Galium plant response rating [16, 29]: 0 | Plant response rating, Galium [16, 33]: 0 | Corn plant response rating (corn (Zea mays); 125 g ai/ha, approx. 10 d): 0 | Plant response rating, Corn (corn (Zea mays); [31]): 0 | Barnyardgrass plant response rating ([17]; 125 g ai/ha, approx. 10 d): 20 | Plant response rating, Barnyardgrass [17, 31]: 30 | Pigweed plant response rating [18, 29]: 0 | Plant response rating, Pigweed [18, 33]: 0
